From ChEMBL document CHEMBL4373693, “Virtual Screening Approach and Investigation of Structure-Activity Relationships To Discover Novel Bacterial Topoisomerase Inhibitors Targeting Gram-Positive and Gram-Negative Pathogens” (J Med Chem, 2019)
In brackets after ≈: the same amount, converted by molar mass.

Tests used:
[1] = target: DNA topoisomerase 4 subunit A (Staphylococcus aureus, UniProt P0C1U9); test: Inhibition of Staphylococcus aureus ATCC 29213 DNA topoisomerase 4 subunit ParC assessed as reduction in decatenation of kinetoplast DNA incubated for 30 mins by ethidium bromide staining based gel electrophoresis method
Pseudomonas aeruginosa = test: Antibacterial activity against Pseudomonas aeruginosa ATCC 27853 after 16 to 24 hrs by CLSI method; assay type: functional
Staphylococcus aureus [2] = test: Antibacterial activity against Staphylococcus aureus ATCC 29213 after 16 to 24 hrs by broth microdilution method; assay type: functional
Escherichia coli [3] = test: Antibacterial activity against Escherichia coli ATCC 25922 after 16 to 24 hrs by broth microdilution method; assay type: functional
Staphylococcus aureus [4] = test: Antibacterial activity against Staphylococcus aureus BAA-1720 after 16 to 24 hrs by broth microdilution method; assay type: functional
DNA gyrase subunit A [5] = target: DNA gyrase subunit A (Escherichia coli K-12, UniProt P0AES4); test: Inhibition of Escherichia coli ATCC 25922 DNA gyrase A assessed as reduction in enzyme-mediated supercoiling of relaxed pBR322 DNA by ethidium bromide staining based gel electrophoresis method
DNA gyrase subunit A [6] = target: DNA gyrase subunit A (Staphylococcus aureus, UniProt P20831); test: Inhibition of Staphylococcus aureus ATCC 29213 DNA gyrase A assessed as reduction in enzyme-mediated supercoiling of relaxed pBR322 DNA by ethidium bromide staining based gel electrophoresis method
[7] = target: T1, DNA topoisomerase 4 subunit A (Escherichia coli K-12, UniProt P0AFI2); test: Inhibition of Escherichia coli ATCC 25922 DNA topoisomerase 4 subunit ParC assessed as reduction in decatenation of kinetoplast DNA incubated for 30 mins by ethidium bromide staining based gel electrophoresis method
T1 sequence (P0AFI2 whole entry): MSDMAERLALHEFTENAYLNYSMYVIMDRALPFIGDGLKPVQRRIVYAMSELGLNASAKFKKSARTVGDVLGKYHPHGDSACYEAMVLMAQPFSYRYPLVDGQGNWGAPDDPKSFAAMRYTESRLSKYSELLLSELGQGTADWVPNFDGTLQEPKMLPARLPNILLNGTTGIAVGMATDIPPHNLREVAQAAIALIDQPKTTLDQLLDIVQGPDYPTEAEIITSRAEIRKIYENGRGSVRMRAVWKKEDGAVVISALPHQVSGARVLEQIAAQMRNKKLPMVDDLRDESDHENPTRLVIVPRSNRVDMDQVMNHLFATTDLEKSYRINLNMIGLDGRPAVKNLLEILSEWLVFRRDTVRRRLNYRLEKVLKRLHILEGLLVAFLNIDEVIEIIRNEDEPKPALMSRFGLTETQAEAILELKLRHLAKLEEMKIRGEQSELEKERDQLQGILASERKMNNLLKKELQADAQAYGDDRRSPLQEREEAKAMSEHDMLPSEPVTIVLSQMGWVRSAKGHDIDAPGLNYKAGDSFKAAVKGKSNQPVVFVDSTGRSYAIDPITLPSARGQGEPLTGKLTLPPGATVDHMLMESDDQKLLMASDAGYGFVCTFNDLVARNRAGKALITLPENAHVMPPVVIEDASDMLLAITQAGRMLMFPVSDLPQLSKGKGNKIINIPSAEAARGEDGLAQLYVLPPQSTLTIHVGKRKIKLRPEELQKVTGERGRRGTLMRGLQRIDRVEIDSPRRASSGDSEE

Enterococcus faecalis [8] = test: Antibacterial activity against vancomycin and teicoplanin-resistant Enterococcus faecalis APV 00408 after 16 to 24 hrs by broth microdilution method; assay type: functional
Neisseria gonorrhoeae = test: Antibacterial activity against Neisseria gonorrhoeae ATCC 19424 after 16 to 24 hrs by broth microdilution method; assay type: functional
Enterococcus faecium [9] = test: Antibacterial activity against Enterococcus faecium APV 00627 after 16 to 24 hrs by broth microdilution method; assay type: functional
Enterococcus faecium [10] = test: Antibacterial activity against Enterococcus faecium APV 00626 after 16 to 24 hrs by broth microdilution method; assay type: functional
[11] = Selectivity ratio, ratio of IC50 for human HepG2 cells to MIC for Escherichia coli ATCC 25922; assay type: toxicity; details: read-out: Selectivity Index
Escherichia coli [12] = test: Selectivity ratio of MIC for Escherichia coli ATCC 25922 in presence of 50% human serum to MIC for Escherichia coli ATCC 25922; assay type: functional
Enterococcus faecalis [13] = test: Antibacterial activity against vancomycin-sensitive Enterococcus faecalis APV 00623 after 16 to 24 hrs by broth microdilution method; assay type: functional
Enterococcus faecium [14] = test: Antibacterial activity against vancomycin and teicoplanin-resistant Enterococcus faecium APV 00422 after 16 to 24 hrs by broth microdilution method; assay type: functional
[15] = Selectivity ratio, ratio of IC50 for human HEK293 cells to MIC for Escherichia coli ATCC 25922; assay type: toxicity; details: read-out: Selectivity Index
Klebsiella pneumoniae = test: Antibacterial activity against quinolone-sensitive Klebsiella pneumoniae ATCC 700603 after 16 to 24 hrs by broth microdilution method; assay type: functional
Enterococcus faecium [16] = test: Antibacterial activity against vancomycin resistant and teicoplanin sensitive Enterococcus faecium APV 00420 after 16 to 24 hrs by broth microdilution method; assay type: functional
Enterococcus faecium [17] = test: Antibacterial activity against vancomycin resistant and teicoplanin sensitive Enterococcus faecium APV 00553 after 16 to 24 hrs by broth microdilution method; assay type: functional
Staphylococcus aureus [18] = test: Selectivity ratio of MIC for Staphylococcus aureus ATCC 29213 in presence of 50% human serum to MIC for Staphylococcus aureus ATCC 29213; assay type: functional
Staphylococcus aureus [19] = test: Antibacterial activity against Staphylococcus aureus BAA-1720 in presence of 50% human serum after 16 to 24 hrs by broth microdilution method; assay type: functional
Enterococcus faecalis [20] = test: Antibacterial activity against vancomycin-sensitive Enterococcus faecalis APV 00406 after 16 to 24 hrs by broth microdilution method; assay type: functional
Staphylococcus aureus [21] = test: Selectivity ratio of MIC for Staphylococcus aureus BAA-1720 in presence of 50% human serum to MIC for Staphylococcus aureus BAA-1720; assay type: functional
Enterococcus faecalis [22] = test: Antibacterial activity against vancomycin and teicoplanin-resistant Enterococcus faecalis APV 00409 after 16 to 24 hrs by broth microdilution method; assay type: functional
[23] = Selectivity ratio, ratio of IC50 for human HEK293 cells to MIC for Staphylococcus aureus ATCC 29213; assay type: toxicity; details: read-out: Selectivity Index
HepG2 = test: Cytotoxicity against human HepG2 cells after 48 hrs by Alamar blue staining-based fluorometric analysis; assay type: cell-based; details: HepG2, 48 h
Enterococcus faecalis [24] = test: Antibacterial activity against Enterococcus faecalis ATCC 29212 after 16 to 24 hrs by broth microdilution method; assay type: functional
Escherichia coli [25] = test: Antibacterial activity against Escherichia coli ATCC 25922 in presence of 50% human serum after 16 to 24 hrs by broth microdilution method; assay type: functional
Enterococcus faecalis [26] = test: Antibacterial activity against vancomycin-sensitive Enterococcus faecalis APV 00404 after 16 to 24 hrs by broth microdilution method; assay type: functional
Haemophilus influenzae [27] = test: Antibacterial activity against quinolone-sensitive Haemophilus influenzae H128 after 16 to 24 hrs by broth microdilution method; assay type: functional
Haemophilus influenzae [28] = test: Antibacterial activity against quinolone-sensitive Haemophilus influenzae ATCC 49766 after 16 to 24 hrs by broth microdilution method; assay type: functional
hERG (KCNH2) = hERG (KCNH2) (Homo sapiens, UniProt Q12809); test: Inhibition of human ERG expressed in CHO cells at 10 uM after 5 mins by automated whole-cell patch clamp relative to control; assay type: cell-based; details: CHO cells that express human ERG
Enterococcus faecium [29] = test: Antibacterial activity against vancomycin and teicoplanin-resistant Enterococcus faecium APV 00424 after 16 to 24 hrs by broth microdilution method; assay type: functional
Staphylococcus aureus [30] = test: Antibacterial activity against Staphylococcus aureus ATCC 29213 in presence of 50% human serum after 16 to 24 hrs by broth microdilution method; assay type: functional
HEK293 = test: Cytotoxicity against human HEK293 cells after 48 hrs by Alamar blue staining-based fluorometric analysis; assay type: cell-based; details: HEK293, 48 h
[31] = Selectivity ratio, ratio of IC50 for human HepG2 cells to MIC for Staphylococcus aureus ATCC 29213; assay type: toxicity; details: read-out: Selectivity Index
Escherichia coli [32] = test: Antibacterial activity against Escherichia coli; assay type: functional
Staphylococcus aureus [33] = test: Antibacterial activity against Staphylococcus aureus; assay type: functional

DNA gyrase subunit A (Escherichia coli K-12, UniProt P0AES4), sequence (P0AES4 whole entry): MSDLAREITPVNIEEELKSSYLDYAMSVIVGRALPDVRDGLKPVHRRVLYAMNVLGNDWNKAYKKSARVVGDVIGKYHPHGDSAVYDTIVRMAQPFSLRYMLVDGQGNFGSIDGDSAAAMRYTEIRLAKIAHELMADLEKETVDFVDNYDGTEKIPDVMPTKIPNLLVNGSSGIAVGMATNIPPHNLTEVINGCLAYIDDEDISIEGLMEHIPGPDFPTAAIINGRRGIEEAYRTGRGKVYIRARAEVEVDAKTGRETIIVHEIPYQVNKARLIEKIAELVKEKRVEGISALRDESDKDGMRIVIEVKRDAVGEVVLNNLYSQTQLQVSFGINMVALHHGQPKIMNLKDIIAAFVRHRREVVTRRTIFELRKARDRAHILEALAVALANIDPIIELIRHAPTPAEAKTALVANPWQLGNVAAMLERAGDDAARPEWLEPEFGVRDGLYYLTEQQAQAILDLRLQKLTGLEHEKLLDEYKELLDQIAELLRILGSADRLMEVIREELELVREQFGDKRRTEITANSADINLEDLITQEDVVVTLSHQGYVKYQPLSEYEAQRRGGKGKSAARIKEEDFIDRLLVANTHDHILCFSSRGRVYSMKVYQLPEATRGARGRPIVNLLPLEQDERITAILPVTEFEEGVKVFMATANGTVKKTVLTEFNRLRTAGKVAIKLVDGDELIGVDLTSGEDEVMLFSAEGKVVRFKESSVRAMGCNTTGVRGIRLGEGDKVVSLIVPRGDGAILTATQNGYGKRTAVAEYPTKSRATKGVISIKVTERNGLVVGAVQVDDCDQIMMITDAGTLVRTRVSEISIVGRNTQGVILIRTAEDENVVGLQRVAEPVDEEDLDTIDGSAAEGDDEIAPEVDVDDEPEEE
DNA topoisomerase 4 subunit A (Staphylococcus aureus, UniProt P0C1U9), sequence (P0C1U9 whole entry): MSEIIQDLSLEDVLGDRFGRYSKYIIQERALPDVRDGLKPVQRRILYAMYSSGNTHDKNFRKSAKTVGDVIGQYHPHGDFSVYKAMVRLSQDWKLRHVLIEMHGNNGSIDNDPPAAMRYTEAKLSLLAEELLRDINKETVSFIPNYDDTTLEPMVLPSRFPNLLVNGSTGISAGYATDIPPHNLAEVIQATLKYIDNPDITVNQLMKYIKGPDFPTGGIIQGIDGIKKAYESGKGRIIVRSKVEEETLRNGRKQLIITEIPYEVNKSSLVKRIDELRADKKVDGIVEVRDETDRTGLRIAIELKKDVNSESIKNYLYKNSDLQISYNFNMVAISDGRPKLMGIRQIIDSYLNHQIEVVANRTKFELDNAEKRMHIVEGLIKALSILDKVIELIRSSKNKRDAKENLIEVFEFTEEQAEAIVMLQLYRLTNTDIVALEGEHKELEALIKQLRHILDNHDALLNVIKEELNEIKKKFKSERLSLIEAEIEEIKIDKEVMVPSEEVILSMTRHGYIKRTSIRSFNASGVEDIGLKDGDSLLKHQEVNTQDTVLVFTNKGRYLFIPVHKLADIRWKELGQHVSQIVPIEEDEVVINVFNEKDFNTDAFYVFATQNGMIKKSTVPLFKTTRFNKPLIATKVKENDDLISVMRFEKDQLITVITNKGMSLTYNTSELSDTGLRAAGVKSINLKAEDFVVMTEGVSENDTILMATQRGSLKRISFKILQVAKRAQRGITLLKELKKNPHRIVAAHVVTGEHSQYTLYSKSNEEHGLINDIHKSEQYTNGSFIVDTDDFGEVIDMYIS
DNA gyrase subunit A (Staphylococcus aureus, UniProt P20831), sequence (P20831 whole entry): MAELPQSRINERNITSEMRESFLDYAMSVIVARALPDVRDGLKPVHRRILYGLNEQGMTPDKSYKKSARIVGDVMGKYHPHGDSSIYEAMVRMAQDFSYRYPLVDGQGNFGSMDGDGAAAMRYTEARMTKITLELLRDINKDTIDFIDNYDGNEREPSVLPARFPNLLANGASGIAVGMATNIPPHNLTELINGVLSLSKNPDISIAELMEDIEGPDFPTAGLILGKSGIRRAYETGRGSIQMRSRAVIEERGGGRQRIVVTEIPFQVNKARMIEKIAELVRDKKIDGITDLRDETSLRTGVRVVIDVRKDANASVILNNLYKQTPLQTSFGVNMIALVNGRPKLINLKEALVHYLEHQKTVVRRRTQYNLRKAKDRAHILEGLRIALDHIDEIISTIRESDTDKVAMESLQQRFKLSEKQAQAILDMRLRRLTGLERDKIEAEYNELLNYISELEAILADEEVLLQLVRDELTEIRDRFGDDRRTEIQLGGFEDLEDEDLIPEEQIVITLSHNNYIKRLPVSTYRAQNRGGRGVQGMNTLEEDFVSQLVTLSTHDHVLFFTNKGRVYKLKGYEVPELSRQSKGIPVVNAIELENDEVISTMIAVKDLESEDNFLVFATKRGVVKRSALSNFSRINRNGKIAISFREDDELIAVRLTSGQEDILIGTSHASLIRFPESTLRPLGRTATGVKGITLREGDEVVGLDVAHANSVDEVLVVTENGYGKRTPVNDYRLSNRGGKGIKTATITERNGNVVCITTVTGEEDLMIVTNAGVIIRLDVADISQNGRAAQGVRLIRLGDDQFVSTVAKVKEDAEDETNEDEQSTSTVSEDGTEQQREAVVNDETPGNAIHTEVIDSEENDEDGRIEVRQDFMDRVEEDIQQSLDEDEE
hERG (KCNH2), sequence (Q12809 whole entry): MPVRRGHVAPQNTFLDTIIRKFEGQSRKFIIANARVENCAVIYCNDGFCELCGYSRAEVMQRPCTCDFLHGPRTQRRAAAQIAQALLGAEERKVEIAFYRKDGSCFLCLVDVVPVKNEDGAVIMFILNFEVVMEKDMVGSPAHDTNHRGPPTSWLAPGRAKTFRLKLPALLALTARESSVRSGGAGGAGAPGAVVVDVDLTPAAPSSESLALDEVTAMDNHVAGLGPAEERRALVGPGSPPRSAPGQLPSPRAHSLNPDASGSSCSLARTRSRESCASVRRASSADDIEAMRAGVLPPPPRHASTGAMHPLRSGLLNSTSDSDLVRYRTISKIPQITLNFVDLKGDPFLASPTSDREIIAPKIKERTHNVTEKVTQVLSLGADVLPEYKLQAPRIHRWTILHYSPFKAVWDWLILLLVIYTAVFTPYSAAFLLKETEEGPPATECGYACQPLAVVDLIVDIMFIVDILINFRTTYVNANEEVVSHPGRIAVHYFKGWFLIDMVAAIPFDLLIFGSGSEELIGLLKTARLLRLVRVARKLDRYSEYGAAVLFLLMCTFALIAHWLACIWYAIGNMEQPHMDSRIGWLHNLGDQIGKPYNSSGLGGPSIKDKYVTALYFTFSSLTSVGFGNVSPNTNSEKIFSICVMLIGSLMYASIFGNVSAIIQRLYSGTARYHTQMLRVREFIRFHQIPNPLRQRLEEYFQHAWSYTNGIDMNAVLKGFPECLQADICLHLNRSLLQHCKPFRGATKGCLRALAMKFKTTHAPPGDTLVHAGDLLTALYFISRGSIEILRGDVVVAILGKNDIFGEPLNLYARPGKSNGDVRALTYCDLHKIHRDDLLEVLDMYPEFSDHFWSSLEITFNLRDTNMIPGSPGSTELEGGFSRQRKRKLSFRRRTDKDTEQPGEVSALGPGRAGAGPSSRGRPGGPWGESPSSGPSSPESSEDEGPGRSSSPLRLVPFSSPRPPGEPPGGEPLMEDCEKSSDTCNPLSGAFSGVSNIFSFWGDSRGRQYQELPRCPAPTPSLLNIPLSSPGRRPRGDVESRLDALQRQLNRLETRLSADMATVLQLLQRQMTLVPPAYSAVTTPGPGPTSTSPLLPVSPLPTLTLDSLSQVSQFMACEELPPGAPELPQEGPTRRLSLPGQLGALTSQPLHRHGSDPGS

Compound	IC50 [1]	MIC (Pseudomonas aeruginosa)	MIC (Staphylococcus aureus [2])	MIC (Escherichia coli [3])	MIC (Staphylococcus aureus [4])	IC50 (DNA gyrase subunit A [5])	IC50 (DNA gyrase subunit A [6])	IC50 [7]	MIC (Enterococcus faecalis [8])	MIC (Enterococcus faecium [9])	MIC (Enterococcus faecium [10])	MIC (Enterococcus faecalis [13])	MIC (Enterococcus faecium [14])	MIC (Klebsiella pneumoniae)	MIC (Enterococcus faecium [16])	MIC (Enterococcus faecium [17])	MIC (Enterococcus faecalis [20])	MIC (Enterococcus faecalis [22])	MIC (Enterococcus faecalis [24])	MIC (Enterococcus faecalis [26])	further results
O=c1cc(NCCCN2CCN(c3nccc4ccccc34)CC2)c2ccccc2o1	90 µM	> 32 mg/L	> 32 mg/L	4 mg/L	> 32 mg/L	0.5 µM	14 µM	10 µM													
N#Cc1ccc2ccnc(N3CCN(CCCNc4cc(=O)oc5ccccc45)CC3)c2c1	5.1 µM	> 8 mg/L	8 mg/L	2 mg/L	4 mg/L (≈ 9.1 µM)	2.3 µM	6.8 µM	1.7 µM													
O=c1cc(NCCCN2CCN(c3nccc4ccc(Cl)cc34)CC2)c2ccccc2o1	5.6 µM	8 mg/L (≈ 17.8 µM)	4 mg/L	2 mg/L	2 mg/L (≈ 4.45 µM)	0.9 µM	4.5 µM	2.4 µM													
O=c1cc(CC(O)CCN2CCN(c3nccc4ccc(F)cc34)CC2)c2ccccc2o1 (racemic)	1.7 µM	> 8 mg/L	1 mg/L	8 mg/L	4 mg/L (≈ 8.94 µM)	2.8 µM	0.8 µM	2.5 µM													
O=c1cc(NCC(O)CN2CCN(c3nccc4ncccc34)CC2)c2cc(F)ccc2o1 (racemic)	0.3 µM	8 mg/L (≈ 17.8 µM)	4 mg/L	2 mg/L	4 mg/L (≈ 8.9 µM)	0.15 µM	1.1 µM	0.2 µM													
O=c1nc(NCC(O)CN2CCN(c3nccc4ccc(F)cc34)CC2)c2cc(F)ccc2o1 (racemic)	0.05 µM	4 mg/L (≈ 8.56 µM)	0.21 µM	2.14 µM	0.25 mg/L (≈ 0.535 µM)	0.4 µM	0.02 µM	0.1 µM	0.25 mg/L (≈ 0.535 µM)	1 mg/L (≈ 2.14 µM)	16 mg/L (≈ 34.2 µM)	0.5 mg/L (≈ 1.07 µM)	0.25 mg/L (≈ 0.535 µM)	4 mg/L (≈ 8.56 µM)	1 mg/L (≈ 2.14 µM)	0.5 mg/L (≈ 1.07 µM)	0.25 mg/L (≈ 0.535 µM)	0.12 mg/L (≈ 0.257 µM)	0.5 mg/L (≈ 1.07 µM)	0.25 mg/L (≈ 0.535 µM)	MIC (Neisseria gonorrhoeae): ≤ 0.06 mg/L; selectivity ratio [11]: 26; Ratio (Escherichia coli [12]): >=32 - 267; selectivity ratio [15]: 37; Ratio (Staphylococcus aureus [18]): >=32 - 267; MIC (Staphylococcus aureus [19]): > 8 mg/L; Ratio (Staphylococcus aureus [21]): >=32 - 267; selectivity ratio [23]: 381; IC50 (HepG2): 55 µM; MIC (Escherichia coli [25]): > 8 mg/L; MIC (Haemophilus influenzae [27]): 0.12 mg/L (≈ 0.257 µM); MIC (Haemophilus influenzae [28]): 0.25 mg/L (≈ 0.535 µM); inhibition at 5 min, 10 µM (hERG (KCNH2)): 67%; MIC (Enterococcus faecium [29]): 0.12 mg/L (≈ 0.257 µM); MIC (Staphylococcus aureus [30]): > 8 mg/L; IC50 (HEK293): 80 µM; selectivity ratio [31]: 262
O=C(O)c1cn(C2CC2)c2cc(N3CCNCC3)c(F)cc2c1=O [CIPROFLOXACIN]			0.25 to 0.5 mg/L		4 to 64 mg/L (≈ 12.1 to 193 µM)				64 mg/L (≈ 193 µM)	4 mg/L (≈ 12.1 µM)	16 mg/L (≈ 48.3 µM)	2 mg/L (≈ 6.04 µM)	128 mg/L (≈ 386 µM)	0.125 mg/L (≈ 0.377 µM)	> 32 mg/L	128 mg/L (≈ 386 µM)	64 mg/L (≈ 193 µM)	32 mg/L (≈ 96.6 µM)	1 mg/L (≈ 3.02 µM)	2 mg/L (≈ 6.04 µM)	MIC (Neisseria gonorrhoeae): ≤ 0.06 mg/L; MIC (Staphylococcus aureus [19]): > 4 mg/L; MIC (Haemophilus influenzae [27]): 0.008 mg/L (≈ 0.0241 µM); MIC (Haemophilus influenzae [28]): 0.015 mg/L (≈ 0.0453 µM); MIC (Enterococcus faecium [29]): > 128 mg/L; MIC (Staphylococcus aureus [30]): 0.25 mg/L
O=c1ccc2ncc(=O)n3c2n1C[C@H]3CN1CCC(NCc2cc3c(cn2)OCCC3)CC1 [GEPOTIDACIN]																					MIC90 (Escherichia coli [32]): 4 mg/L (≈ 8.92 µM); MIC90 (Staphylococcus aureus [33]): 0.5 mg/L (≈ 1.11 µM)
CN[C@H](CC(C)C)C(=O)N[C@H]1C(=O)N[C@@H](CC(N)=O)C(=O)N[C@H]2C(=O)N[C@H]3C(=O)N[C@H](C(=O)N[C@H](C(=O)O)c4cc(O)cc(O)c4-c4cc3ccc4O)[C@H](O)c3ccc(c(Cl)c3)Oc3cc2cc(c3O[C@@H]2O[C@H](CO)[C@@H](O)[C@H](O)[C@H]2O[C@H]2C[C@](C)(N)[C@H](O)[C@H](C)O2)Oc2ccc(cc2Cl)[C@H]1O [VANCOMYCIN]									> 128 mg/L	> 128 mg/L	> 128 mg/L	2 mg/L (≈ 1.38 µM)	> 128 mg/L	> 8 mg/L	> 8 mg/L	> 128 mg/L	1 mg/L (≈ 0.69 µM)	> 128 mg/L	4 mg/L (≈ 2.76 µM)	2 mg/L (≈ 1.38 µM)	MIC (Haemophilus influenzae [27]): > 8 mg/L; MIC (Haemophilus influenzae [28]): > 8 mg/L; MIC (Enterococcus faecium [29]): > 128 mg/L
